Reference: patent USRE39591E1, “6-O-substituted ketolides having antibacterial activity” (Abbott Laboratories, priority 1996, dated 2007)
Converted amounts (≈) assume the structure as drawn.

Test system: up to 32 different microorganisms
Assay: in vitro antibacterial activity (MIC), agar dilution on Brain Heart Infusion (BHI) agar with Steers replicator
Assay type: cell-based
Conditions: unit assumed
In short: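 Erythromycin A served as the same-class reference for test-to-test comparability. Test compound was tested over twelve successive dilutions in BHI agar; plates were incubated 20 to 24 hours at 35°-37° C, with MIC taken as the lowest concentration showing no growth, slight haze, or sparse colonies.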

| SMILES | MIC (organism code AA) [µg/mL] | MIC (organism code BB) [µg/mL] | MIC (organism code CC) [µg/mL] | MIC (organism code DD) [µg/mL] | MIC (organism code EE) [µg/mL] | MIC (organism code FF) [µg/mL] | MIC (organism code GG) [µg/mL] | MIC (organism code HH) [µg/mL] | MIC (organism code II) [µg/mL] | MIC (organism code JJ) [µg/mL] | MIC (organism code KK) [µg/mL] | MIC (organism code MM) [µg/mL] | MIC (organism code NN) [µg/mL] | MIC (organism code OO) [µg/mL] | MIC (organism code PP) [µg/mL] | MIC (organism code QQ) [µg/mL] | MIC (organism code RR) [µg/mL] | MIC (organism code SS) [µg/mL] | MIC (organism code TT) [µg/mL] | MIC (organism code UU) [µg/mL] | further results |
| --- | --- | --- | --- | --- | --- | --- | --- | --- | --- | --- | --- | --- | --- | --- | --- | --- | --- | --- | --- | --- | --- |
| CCC1OC(=O)C(C)C(=O)C(C)C(OC2OC(C)CC(N(C)C)C2O)C(C)(OCC=Cc2ccc3ncc(-c4cccnc4)cc3c2)CC(C)C(=O)C(C)C2NC(=O)OC12C (centres unmarked) [Example 274] | 0.1 (≈ 0.119 µM) | 0.1 (≈ 0.119 µM) | > 100 | 0.1 (≈ 0.119 µM) | 0.1 (≈ 0.119 µM) | 0.05 (≈ 0.0593 µM) | > 100 | 0.1 (≈ 0.119 µM) | 0.05 (≈ 0.0593 µM) | 0.01 (≈ 0.0119 µM) | 0.01 (≈ 0.0119 µM) | 6.2 (≈ 7.35 µM) | 0.1 (≈ 0.119 µM) | 0.01 (≈ 0.0119 µM) | 0.1 (≈ 0.119 µM) | > 100 | 0.2 (≈ 0.237 µM) | > 100 | > 100 | 0.78 (≈ 0.925 µM) | MIC (organism code LL): 0.01 µg/mL (≈ 0.0119 µM); MIC (organism code VV): 0.05 µg/mL (≈ 0.0593 µM); MIC (organism code WW): 4 µg/mL (≈ 4.74 µM); MIC (organism code XX): ≤ 0.004 µg/mL; MIC (organism code YY): ≤ 0.004 µg/mL; MIC (organism code ZZ): 8 µg/mL (≈ 9.49 µM); MIC (organism code ZZA): 0.25 µg/mL (≈ 0.297 µM) |
| CCC1OC(=O)C(C)C(=O)C(C)C(OC2OC(C)CC(N(C)C)C2O)C(C)(OCC=Cc2ccc3ncc(-c4cccs4)cc3c2)CC(C)C(=O)C(C)C2NC(=O)OC12C (centres unmarked) [Example 275, Compound of Formula (IX): L is CO, T is NH2, R is —CH2CH═CH-(3-(2-thiphenyl)-6-quinolyl)] | 0.2 | 0.2 | > 100 | 0.2 | 0.2 | 0.2 | > 100 | 0.2 | 0.1 | 0.01 | 0.05 | 12.5 | 0.2 | 0.02 | 0.2 | > 100 | 0.78 | > 100 | > 100 | 0.39 | MIC (organism code LL): 0.02 µg/mL; MIC (organism code VV): 0.2 µg/mL; MIC (organism code WW): 8 µg/mL; MIC (organism code XX): 0.03 µg/mL; MIC (organism code YY): 0.03 µg/mL; MIC (organism code ZZ): 4 µg/mL; MIC (organism code ZZA): 0.5 µg/mL |
| CCC1OC(=O)C(C)C(=O)C(C)C(OC2OC(C)CC(N(C)C)C2O)C(C)(OCC=Cc2ccc(C)c3ccccc23)CC(C)C(=O)C(C)C2NC(=O)OC12C (centres unmarked) [Example 276, Compound of Formula (IX): L is CO, T is NH2, R is —CH2CH═CH-(4-methylnaphthyl)] | 0.39 | 0.78 | 50 | 0.39 | 0.78 | 0.78 | 25 | 0.78 | 0.2 | 0.02 | 0.1 | 25 | 0.39 | 0.1 | 0.39 | > 100 | 6.2 | > 100 | > 100 | 0.78 | MIC (organism code LL): 0.02 µg/mL; MIC (organism code VV): 1.56 µg/mL; MIC (organism code WW): 8 µg/mL; MIC (organism code XX): 0.125 µg/mL; MIC (organism code YY): 0.125 µg/mL; MIC (organism code ZZ): 16 µg/mL; MIC (organism code ZZA): 0.5 µg/mL |
| CCC1OC(=O)C(C)C(=O)C(C)C(OC2OC(C)CC(N(C)C)C2O)C(C)(OCC=Cc2ccc3cccnc3c2)CC(C)C(=O)C(C)C2NC(=O)OC12C (centres unmarked) [Example 278, Compound of Formula (IX): L is CO, T is NH2, R is —CH2CH═CH-(7-quinolyl)] | 0.05 | 0.05 | > 100 | 0.05 | 0.05 | 0.05 | > 100 | 0.1 | 0.05 | 0.01 | 0.01 | 1.56 | 0.2 | 0.01 | 0.1 | 25 | 0.39 | 12.5 | > 100 | 0.78 | MIC (organism code LL): ≤ 0.005 µg/mL; MIC (organism code VV): 0.02 µg/mL; MIC (organism code WW): 4 µg/mL; MIC (organism code XX): 0.03 µg/mL; MIC (organism code YY): 0.03 µg/mL; MIC (organism code ZZ): 128 µg/mL; MIC (organism code ZZA): 0.5 µg/mL |
| CCC1OC(=O)C(C)C(=O)C(C)C(OC2OC(C)CC(N(C)C)C2O)C(C)(OCC=Cc2ccc(F)c3ccccc23)CC(C)C(=O)C(C)C2NC(=O)OC12C (centres unmarked) [Example 279, Compound of Formula (IX): L is CO, T is NH2, R is —CH2CH═CH-(4-fluoronaphthyl)] | 0.39 | 0.39 | 50 | 0.78 | 0.39 | 0.39 | 50 | 0.39 | 0.2 | 0.05 | 0.02 | 25 | 0.39 | 0.05 | 0.39 | > 100 | 1.56 | > 100 | > 100 | 0.78 | MIC (organism code VV): 0.78 µg/mL; MIC (organism code WW): 8 µg/mL; MIC (organism code XX): 0.03 µg/mL; MIC (organism code YY): 0.03 µg/mL; MIC (organism code ZZ): 32 µg/mL; MIC (organism code ZZA): 0.5 µg/mL |
| CCC1OC(=O)C(C)C(=O)C(C)C(OC2OC(C)CC(N(C)C)C2O)C(C)(OCC=Cc2cccc(-c3ccccc3)c2)CC(C)C(=O)C(C)C2NC(=O)OC12C (centres unmarked) [Example 280, Compound of Formula (IX): L is CO, T is NH2, R is —CH2CH═CH-(3-biphenyl)] | 0.39 | 0.39 | 50 | 0.39 | 0.39 | 0.39 | 50 | 0.39 | 0.2 | 0.05 | 0.05 | 12.5 | 0.39 | 0.1 | 0.78 | > 100 | 1.56 | > 100 | > 100 | 3.1 | MIC (organism code LL): 0.1 µg/mL; MIC (organism code VV): 6.2 µg/mL; MIC (organism code WW): 8 µg/mL; MIC (organism code XX): 0.06 µg/mL; MIC (organism code YY): 0.06 µg/mL; MIC (organism code ZZ): 16 µg/mL; MIC (organism code ZZA): 1 µg/mL |
| CCC1OC(=O)C(C)C(=O)C(C)C(OC2OC(C)CC(N(C)C)C2O)C(C)(OCC=Cc2cccc3c([N+](=O)[O-])cccc23)CC(C)C(=O)C(C)C2NC(=O)OC12C (centres unmarked) [Example 281, Compound of Formula (IX): L is CO, T is NH2, R is —CH2CH═CH-(5-nitronaphthyl)] | 0.78 | 0.78 | > 100 | 0.78 | 0.78 | 0.78 | > 100 | 0.78 | 0.39 | 0.05 | 0.1 | 50 | 0.39 | 0.2 | 0.78 | > 100 | 3.1 | > 100 | > 100 | 3.1 | MIC (organism code LL): 0.1 µg/mL; MIC (organism code VV): 3.1 µg/mL; MIC (organism code WW): 32 µg/mL; MIC (organism code XX): 0.25 µg/mL; MIC (organism code YY): 0.25 µg/mL; MIC (organism code ZZ): 64 µg/mL; MIC (organism code ZZA): 1 µg/mL |
